Experimental data from patent US7479484B2, “Peptides and peptidomimetics having immune-modulating, anti-inflammatory, and anti-viral activity” (priority 2003, dated 2009).
In brackets after ≈: the same amount, converted by molar mass. Several values for one entry are separate records, joined by “and”; a condition that tells them apart may be missing. Equal values may be shown once. Where a name gives a salt, the structure may show the parent alone. Read-outs that look alike come from different tables or passages of the source. Marks after values point to notes of the source that are not given here. Where a SMILES comes first, the peptide text is derived from it. [ ]: non-standard residue; d: D form. dPhe(F5) = N[C@H](Cc1c(F)c(F)c(F)c(F)c1F)C(=O)O; dBpa = N[C@H](Cc1ccc(C(=O)c2ccccc2)cc1)C(=O)O; dCha = N[C@H](CC1CCCCC1)C(=O)O

Assays:
[1] = system: adjuvant-induced arthritis; settings: rat
[2] = system: kinases involved in the cell cycle G2 checkpoint, including mitogen activated kinase p38; settings: as disclosed in U.S. application Ser. No. 10/347,145; cited from earlier work
[3] = Cytotoxicity in PBMC (tetrazolium dye reduction); type: cell-based; settings: human, peripheral blood mononuclear cells (PBMC), highest concentration tested 80 μg/ml, called an estimate, read-out: TC50 (concentration decreasing cell viability by 50%)
Procedure: (§1) CBP501 was tested for antiviral activity against HIV-1 in peripheral blood mononuclear cells (PBMC) using the clinical pediatric HIV strain WeJo. PBMCs were derived from normal HIV-1-negative donors, and cultured under conditions which promote cell survival and HIV replication. Antiviral activity was measured by detecting the amount of extracellular HIV-1p24 protein in a sample, where a decrease in p24 levels indicated antiviral activity. Cytotoxity was measured by a tetrazolium dye reduction method. Antiviral activity was analyzed for a series of dilutions of a stock solution of 100 μg/ml CBP501. The experiments were performed using serial dilutions of the compound, generating a series of concentrations from 0.3125 to 80 μg/ml CBP501.

[4] = system: peripheral blood mononuclear cells (PBMC); experiment: Cytotoxicity in PBMC (tetrazolium dye reduction); type: cell-based
Procedure: as §1

[5] = Cytotoxicity in monocyte/macrophages (tetrazolium dye reduction); type: cell-based, human; settings: human, highest concentration tested 80 μg/ml, called an estimate, read-out: TC50 (concentration decreasing cell viability by 50%)
Procedure: as §1, with “evaluated” for “tested”, “activity” for “activity against HIV-1”, “monocyte/macrophages” for “peripheral blood mononuclear cells (PBMC)”, “the” for “the clinical pediatric”, “Ba-L. Monocyte/macrophages” for “WeJo. PBMCs”

monocyte/macrophages = experiment: as above; type: cell-based, human
Procedure: as §1, with “evaluated” for “tested”, “activity” for “activity against HIV-1”, “monocyte/macrophages” for “peripheral blood mononuclear cells (PBMC)”, “the” for “the clinical pediatric”, “Ba-L. Monocyte/macrophages” for “WeJo. PBMCs”

HIV-1 strain WeJo = experiment: Inhibition of HIV-1 replication in PBMC (extracellular p24); type: cell-based; settings: HIV-1 strain WeJo in PBMC
Procedure: as §1

[6] = system: passive cutaneous anaphylaxis (PCA); experiment: Passive cutaneous anaphylaxis (PCA) in rats; type: in vivo, Wistar rats; settings: rat, IP; for PCA Response 1st Spot / PCA Response 2nd Spot: weal score per animal (N 1-3); for % Inhibition: relative to vehicle control group; for Total PCA Response: sum of scores of 3 animals
Procedure: CBP501 (SEQ ID NO: 80) was evaluated for anti-allergic activity in a model of passive cutaneous anaphylaxis (PCA) in Wistar rats. CBP501, at doses of 20, 10, and 5 mg/kg, was administered intraperitoneally (IP) 30 minutes before challenge with a mixture of ovalbumin and Evans Blue dye.
CBP501 was dissolved in 0.9% NaCl. CBP501, at 20, 10 and 5 mg/kg, was administered intraperitoneally (IP) 30 min before challenge with a mixture of ovalbumin and Evans Blue dye.
Animals: Male or female Wistar rats were provided by the animal breeding center of MDS Pharma Services-Taiwan Ltd. Space allocation for 6 animals was 45×23×21 cm. All animals were maintained in a hygienic environment in a controlled temperature (21.5-22.5° C.) and humidity (50%-70%) environment, with 12 hour light-dark cycles for at least one week, housed in the MDS Pharma Services-Taiwan Laboratory, prior to being used. All aspects of this work including housing, experimentation and disposal of animals were performed in general accordance with the International Guiding Principles for Biomedical Research Involving Animals (CIOMS Publication No. ISBN 92 90360194, 1985).
Chemicals: Cyproheptadine-HCl (RBI-USA), ethanol absolute (Merck, Germany), distilled water (in-house), Evans Blue (Fluka, Switzerland), and ovalbumin (Sigma-Aldrich, USA) were used.
Method of administration: Five groups of three (3) Wistar-derived male rats weighing 80+/−10 g were passively sensitized 16 hours earlier by intradermal injection of reaginic (IgE) antiovalbumin serum (0.05 ml) on two spots of the dorsal surface. […] Within 30 minutes after administration of CBP501, the animals were challenged intravenously (IV) with a mixture of ovalbumin (1 mg) and Evans Blue dye (5 mg). Animals were sacrificed 30 minutes after challenge.
Results: Two measured weal diameters were averaged for each animal and scored 0 if <0.05 cm, 1 if 0.05-0.2 cm, 2 if 0.2-0.4 cm, 3 if 0.4-0.6 cm, 4 if 0.6-0.8 cm and 5 if >0.8 cm. Maximum possible score for each animal totals 2×5=10. Inhibition of the resulting PCA blue colored weal by 50 percent or more relative to the vehicle control group indicates possible antiallergic activity. Results are shown in Table 1, below, where significant changes are indicated by an asterisk(*).

14-3-3 protein = settings: as disclosed in U.S. application Ser. No. 10/347,145; cited from earlier work
HIV-1 strain Ba-L = experiment: Inhibition of HIV-1 replication in human monocyte/macrophages (extracellular p24); type: cell-based; settings: HIV-1 strain Ba-L in monocyte/macrophages
Procedure: as §1, with “evaluated” for “tested”, “activity” for “activity against HIV-1”, “monocyte/macrophages” for “peripheral blood mononuclear cells (PBMC)”, “the” for “the clinical pediatric”, “Ba-L. Monocyte/macrophages” for “WeJo. PBMCs”

[7] = highest concentration tested 80 μg/ml, called an estimate
[8] = 5 mg/kg, 30 min before challenge
[9] = 10 mg/kg, 30 min before challenge
[10] = 20 mg/kg, 30 min before challenge

N=C(N)NCCC[C@@H](NC(=O)[C@@H](CCCNC(=N)N)NC(=O)[C@@H](CCC(N)=O)NC(=O)[C@@H](CCCNC(=N)N)NC(=O)[C@@H](CCCNC(=N)N)NC(=O)[C@@H](CCCNC(=N)N)NC(=O)[C@@H](CC1CCCCC1)NC(=O)[C@@H](Cc1c(F)c(F)c(F)c(F)c1F)NC(=O)[C@@H](CO)NC(=O)[C@@H](Cc1c[nH]c2ccccc12)NC(=O)[C@@H](CO)NC(=O)[C@H](N)Cc1ccc(C(=O)c2ccccc2)cc1)C(=O)O [CBP501, (d-Bpa)(d-Ser)(d-Trp)(d-Ser)(d-Phe-2,3,4,5,6-F)(d-Cha)(d-Arg)(d-Arg)(d-Arg)(d-Gln)(d-Arg)(d-Arg)] (H-[dBpa][dS][dW][dS][dPhe(F5)][dCha][dR][dR][dR][dQ][dR][dR]-OH)
activity in acute phase (in words) ([1]; IP, 2.5 mg/kg ×5 doses): moderate but non-significant activity | activity in late phase (in words) ([1]; IP, 2.5 mg/kg ×5 doses): no activity | anti-inflammatory activity in both acute and late phase (in words) ([1]; IP, 5 mg/kg once daily for 5 consecutive days): significant anti-inflammatory activity | anti-inflammatory activity in both acute and late phase (in words) ([1]; IP, 10 mg/kg single dose): significant anti-inflammatory activity | % Inhibition relative to Vehicle treated control, Days (1-5) ([1]; in vivo, ip, 2.5 mg/kg): 27% | % Inhibition relative to Vehicle treated control, Days (14-18) ([1]; in vivo, ip, 2.5 mg/kg): −11% | % Inhibition relative to Vehicle treated control, Days (1-5) ([1]; in vivo, ip, 5 mg/kg): 51* % | % Inhibition relative to Vehicle treated control, Days (14-18) ([1]; in vivo, ip, 5 mg/kg): 34* % | % Inhibition relative to Vehicle treated control, Days (1-5) ([1]; in vivo, ip, 10 mg/kg): 61* % | % Inhibition relative to Vehicle treated control, Days (14-18) ([1]; in vivo, ip, 10 mg/kg): 31* % | inhibition of phosphorylation activities of kinases involved in the cell cycle G2 checkpoint (in words) [2]: inhibits the phosphorylation activities | CC50 [3]: > 80 µg/mL | cell viability at the highest concentration tested (in words) ([4]; 80 μg/ml): hardly affected | TC50 (concentration decreasing cell viability by 50%) [4, 7]: > 80 µg/mL | CC50 [5]: > 80 µg/mL | decrease of cell viability at the highest concentration tested (monocyte/macrophages; 80 μg/ml): about 25% | TC50 (concentration decreasing cell viability by 50%) (monocyte/macrophages; [7]): > 80 µg/mL | TI (therapeutic index=TC50/IC50) (HIV-1 strain WeJo): > 113 | IC50 (concentration that inhibited virus replication by 50%) (HIV-1 strain WeJo; p24): 0.71 µg/mL (≈ 0.368 µM) | PCA Response 1st Spot [6, 8]: 0 (0 if <0.05 cm) and 1 (1 if 0.05-0.2 cm) (2×) | PCA Response 2nd Spot [6, 8]: 0 (0 if <0.05 cm) and 1 (1 if 0.05-0.2 cm) (2×) | % Inhibition ([6]; 5 mg/kg, 5 mg/kg): 87% | Total PCA Response ([6]; 5 mg/kg): 4 | PCA Response 1st Spot [6, 9]: 0 (0 if <0.05 cm) (2×) and 1 (1 if 0.05-0.2 cm) | PCA Response 2nd Spot [6, 9]: 0 (0 if <0.05 cm) (2×) and 1 (1 if 0.05-0.2 cm) | % Inhibition ([6]; 10 mg/kg, 10 mg/kg): 93% | Total PCA Response ([6]; 10 mg/kg): 2 | PCA Response 1st Spot [6, 10]: 0 (0 if <0.05 cm) (2×) and 1 (1 if 0.05-0.2 cm) | PCA Response 2nd Spot [6, 10]: 0 (0 if <0.05 cm) (2×) and 1 (1 if 0.05-0.2 cm) | % Inhibition ([6]; 20 mg/kg, 20 mg/kg): 93% | Total PCA Response ([6]; 20 mg/kg): 2 | binding to 14-3-3 protein (in words) (14-3-3 protein): binds | TI (therapeutic index=TC50/IC50) (HIV-1 strain Ba-L): > 12.3 | IC50 (concentration that inhibited virus replication by 50%) (HIV-1 strain Ba-L; p24): 6.5 µg/mL (≈ 3.37 µM)

CN1CCC(=C2c3ccccc3C=Cc3ccccc32)CC1 [Cyproheptadine, Cyproheptadine-HCl, reference compound]
% Inhibition ([6]; 1 mg/kg, 1 mg/kg): 87* % | % Inhibition ([6]; 1 mg/kg, listed as cyproheptadine-HCl, 1 mg/kg): 87% | Total PCA Response ([6]; 1 mg/kg): 4 | PCA Response 1st Spot ([6]; 1 mg/kg): 0 (0 if <0.05 cm) and 1 (1 if 0.05-0.2 cm) (2×) | PCA Response 2nd Spot ([6]; 1 mg/kg): 0 (0 if <0.05 cm) and 1 (1 if 0.05-0.2 cm) (2×)

C[C@]12CCC(=O)C=C1CC[C@@H]1[C@@H]2[C@@H](O)C[C@@]2(C)[C@H]1CC[C@]2(O)C(=O)CO [Hydrocortisone, hydrocortisone, reference compound]
activity in the acute phase (in words) ([1]; 30 mg/kg daily for 5 days): significant activity | activity in the late phase (in words) ([1]; 30 mg/kg daily for 5 days): near-significant activity | % Inhibition relative to Vehicle treated control, Days (14-18) ([1]; PO, 30 mg/kg per dose × 5 doses, left hind paw volume, late phase): 29% | % Inhibition relative to Vehicle treated control, Days (1-5) ([1]; PO, 30 mg/kg per dose × 5 doses, right hind paw volume, acute phase): 42* %
